# Assay results taken from the supplement of paper PMC11919725.
# Experiments:
# Jurkat [1] = assay: confluency relative to DMSO, 18 h (ratio); higher = more viable
# Outline: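 Compound was applied at 1 nM–10 µM (log10 steps) for 18 h at 37 °C, 5% CO2 to Jurkat cells or to primary CD4+/CD8+ T cells that were naive or had been activated 48 h with CD3/CD28 Dynabeads. Suspension (100 µl) was then plated in 96-well plates with IncuCyte Cytotox Dye and alamarBlue and imaged hourly over 3 h (×10, five images per well). Confluency was calculated from the IncuCyte phase-contrast images using the Basic Analyzer and normalised to the mean of the control wells.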
# Jurkat [2] = assay: metabolic activity relative to DMSO, 18 h (ratio); higher = more viable
# Outline: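 Jurkat cells and primary CD4+/CD8+ T cells, naive or activated for 48 h on CD3/CD28 Dynabeads, were incubated for 18 h with compound at 1 nM–10 µM. Fluorescence was read 3.5 h after alamarBlue addition (10% v/v final) at excitation 544 nm and emission 584 nm. Metabolic activity is normalised to the mean of vehicle controls.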
# Jurkat [3] = assay: cytotoxicity relative to DMSO, 18 h (ratio); higher = less cell death (drugs called cytotoxic fall below 1)
# Outline: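 Fluorescence was imaged at ×10, five images per well, every hour for 3 h, in 96-well plates holding 100 µl of treated cell suspension and IncuCyte Cytotox Dye at 250 nM final. Before plating, Jurkat cells or primary CD4+/CD8+ T cells (naive, or activated 48 h with CD3/CD28 Dynabeads) had been treated for 18 h with compound across 1 nM–10 µM in log10 steps at 37 °C, 5% CO2. Cytotoxicity values were based on these IncuCyte signals after confluency correction and normalisation to the mean of control wells.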
compound,measurement,setting,value
Nc1cc(C(F)(F)F)c(-c2cc(N3CCOCC3)nc(N3CCOCC3)n2)cn1 [Buparlisib],confluency,Jurkat [1]; 1 nM,1.04
same,confluency,Jurkat [1]; 10 nM,1.05
same,confluency,Jurkat [1]; 100 nM,0.999
same,confluency,Jurkat [1]; 1000 nM,1.02
same,confluency,Jurkat [1]; 10000 nM,0.756
same,metabolic activity,Jurkat [2]; 1 nM,0.939
same,metabolic activity,Jurkat [2]; 10 nM,0.925
same,metabolic activity,Jurkat [2]; 100 nM,0.834
same,metabolic activity,Jurkat [2]; 1000 nM,0.742
same,metabolic activity,Jurkat [2]; 10000 nM,0.377
same,cytotoxicity,Jurkat [3]; 1 nM,1.03
same,cytotoxicity,Jurkat [3]; 10 nM,1.06
same,cytotoxicity,Jurkat [3]; 100 nM,0.975
same,cytotoxicity,Jurkat [3]; 1000 nM,0.987
same,cytotoxicity,Jurkat [3]; 10000 nM,0.6
O=c1cc(-c2ccccc2F)[nH]c2cc3c(cc12)OCO3 [CHM-1],confluency,Jurkat [1]; 1 nM,0.973
same,confluency,Jurkat [1]; 10 nM,0.963
same,confluency,Jurkat [1]; 100 nM,0.976
same,confluency,Jurkat [1]; 1000 nM,0.71
same,confluency,Jurkat [1]; 10000 nM,0.588
same,metabolic activity,Jurkat [2]; 1 nM,1.02
same,metabolic activity,Jurkat [2]; 10 nM,1.07
same,metabolic activity,Jurkat [2]; 100 nM,0.992
same,metabolic activity,Jurkat [2]; 1000 nM,0.688
same,metabolic activity,Jurkat [2]; 10000 nM,0.704
same,cytotoxicity,Jurkat [3]; 1 nM,0.961
same,cytotoxicity,Jurkat [3]; 10 nM,0.929
same,cytotoxicity,Jurkat [3]; 100 nM,0.919
same,cytotoxicity,Jurkat [3]; 1000 nM,0.618
same,cytotoxicity,Jurkat [3]; 10000 nM,0.461
O=C(O)C1(C(=O)O)CCC1.[NH2-].[NH2-].[Pt+2] [Carboplatin],confluency,Jurkat [1]; 1 nM,0.969
same,confluency,Jurkat [1]; 10 nM,0.997
same,confluency,Jurkat [1]; 100 nM,0.974
same,confluency,Jurkat [1]; 1000 nM,0.995
same,confluency,Jurkat [1]; 10000 nM,0.951
same,metabolic activity,Jurkat [2]; 1 nM,0.863
same,metabolic activity,Jurkat [2]; 10 nM,0.781
same,metabolic activity,Jurkat [2]; 100 nM,0.818
same,metabolic activity,Jurkat [2]; 1000 nM,0.83
same,metabolic activity,Jurkat [2]; 10000 nM,0.819
same,cytotoxicity,Jurkat [3]; 1 nM,0.95
same,cytotoxicity,Jurkat [3]; 10 nM,1.07
same,cytotoxicity,Jurkat [3]; 100 nM,0.984
same,cytotoxicity,Jurkat [3]; 1000 nM,0.993
same,cytotoxicity,Jurkat [3]; 10000 nM,0.905
CC(C)CC(NC(=O)C(CCc1ccccc1)NC(=O)CN1CCOCC1)C(=O)NC(Cc1ccccc1)C(=O)NC(CC(C)C)C(=O)C1(C)CO1 (stereo not given) [Carfilzomib],confluency,Jurkat [1]; 1 nM,1
same,confluency,Jurkat [1]; 10 nM,0.909
same,confluency,Jurkat [1]; 100 nM,0.803
same,confluency,Jurkat [1]; 1000 nM,0.867
same,confluency,Jurkat [1]; 10000 nM,0.818
same,metabolic activity,Jurkat [2]; 1 nM,1.02
same,metabolic activity,Jurkat [2]; 10 nM,0.882
same,metabolic activity,Jurkat [2]; 100 nM,0.128
same,metabolic activity,Jurkat [2]; 1000 nM,0.113
same,metabolic activity,Jurkat [2]; 10000 nM,0.13
same,cytotoxicity,Jurkat [3]; 1 nM,1.02
same,cytotoxicity,Jurkat [3]; 10 nM,0.883
same,cytotoxicity,Jurkat [3]; 100 nM,0.531
same,cytotoxicity,Jurkat [3]; 1000 nM,0.572
same,cytotoxicity,Jurkat [3]; 10000 nM,0.543
CCS(=O)(=O)N1CCN(c2ccc(Nc3ncc(C(N)=O)c(NC4CC4)n3)cc2)CC1 [Cerdulatinib],confluency,Jurkat [1]; 1 nM,1.04
same,confluency,Jurkat [1]; 10 nM,1.09
same,confluency,Jurkat [1]; 100 nM,0.975
same,confluency,Jurkat [1]; 1000 nM,0.903
same,confluency,Jurkat [1]; 10000 nM,1.07
same,metabolic activity,Jurkat [2]; 1 nM,0.846
same,metabolic activity,Jurkat [2]; 10 nM,0.868
same,metabolic activity,Jurkat [2]; 100 nM,0.898
same,metabolic activity,Jurkat [2]; 1000 nM,0.941
same,metabolic activity,Jurkat [2]; 10000 nM,0.775
same,cytotoxicity,Jurkat [3]; 1 nM,1.03
same,cytotoxicity,Jurkat [3]; 10 nM,1.02
same,cytotoxicity,Jurkat [3]; 100 nM,0.925
same,cytotoxicity,Jurkat [3]; 1000 nM,0.858
same,cytotoxicity,Jurkat [3]; 10000 nM,0.921
N.N.[Cl][Pt][Cl] [Cisplatin],confluency,Jurkat [1]; 1 nM,0.99
same,confluency,Jurkat [1]; 10 nM,1.09
same,confluency,Jurkat [1]; 100 nM,1.01
same,confluency,Jurkat [1]; 1000 nM,0.934
same,confluency,Jurkat [1]; 10000 nM,1.03
same,metabolic activity,Jurkat [2]; 1 nM,0.96
same,metabolic activity,Jurkat [2]; 10 nM,0.989
same,metabolic activity,Jurkat [2]; 100 nM,0.983
same,metabolic activity,Jurkat [2]; 1000 nM,0.939
same,metabolic activity,Jurkat [2]; 10000 nM,1.02
same,cytotoxicity,Jurkat [3]; 1 nM,0.845
same,cytotoxicity,Jurkat [3]; 10 nM,0.582
same,cytotoxicity,Jurkat [3]; 100 nM,0.996
same,cytotoxicity,Jurkat [3]; 1000 nM,0.984
same,cytotoxicity,Jurkat [3]; 10000 nM,1.13
O=C(CCCCCCNC(=O)c1cnc(N(c2ccccc2)c2ccccc2Cl)nc1)NO [Citarinostat],confluency,Jurkat [1]; 1 nM,0.975
same,confluency,Jurkat [1]; 10 nM,1
same,confluency,Jurkat [1]; 100 nM,0.987
same,confluency,Jurkat [1]; 1000 nM,0.98
same,confluency,Jurkat [1]; 10000 nM,0.949
same,metabolic activity,Jurkat [2]; 1 nM,0.94
same,metabolic activity,Jurkat [2]; 10 nM,1.02
same,metabolic activity,Jurkat [2]; 100 nM,0.916
same,metabolic activity,Jurkat [2]; 1000 nM,0.886
same,metabolic activity,Jurkat [2]; 10000 nM,0.632
same,cytotoxicity,Jurkat [3]; 1 nM,1.03
same,cytotoxicity,Jurkat [3]; 10 nM,1.04
same,cytotoxicity,Jurkat [3]; 100 nM,0.967
same,cytotoxicity,Jurkat [3]; 1000 nM,0.941
same,cytotoxicity,Jurkat [3]; 10000 nM,0.871
COc1cc2c(c(OC)c1OC)-c1ccc(OC)c(=O)cc1C(NC(C)=O)CC2 (stereo not given) [Colchicine],confluency,Jurkat [1]; 1 nM,1
same,confluency,Jurkat [1]; 10 nM,1.03
same,confluency,Jurkat [1]; 100 nM,0.72
same,confluency,Jurkat [1]; 1000 nM,0.663
same,confluency,Jurkat [1]; 10000 nM,0.637
same,metabolic activity,Jurkat [2]; 1 nM,0.862
same,metabolic activity,Jurkat [2]; 10 nM,0.83
same,metabolic activity,Jurkat [2]; 100 nM,0.595
same,metabolic activity,Jurkat [2]; 1000 nM,0.519
same,metabolic activity,Jurkat [2]; 10000 nM,0.476
same,cytotoxicity,Jurkat [3]; 1 nM,0.985
same,cytotoxicity,Jurkat [3]; 10 nM,1.19
same,cytotoxicity,Jurkat [3]; 100 nM,0.649
same,cytotoxicity,Jurkat [3]; 1000 nM,0.552
same,cytotoxicity,Jurkat [3]; 10000 nM,0.539
COc1c(OCCCN2CCOCC2)ccc2c3n(c(=NC(=O)c4cnc(N)nc4)nc12)CCN3 [Copanlisib],confluency,Jurkat [1]; 1 nM,0.918
same,confluency,Jurkat [1]; 10 nM,1.05
same,confluency,Jurkat [1]; 100 nM,0.903
same,confluency,Jurkat [1]; 1000 nM,0.789
same,confluency,Jurkat [1]; 10000 nM,0.932
same,metabolic activity,Jurkat [2]; 1 nM,1.04
same,metabolic activity,Jurkat [2]; 10 nM,1.06
same,metabolic activity,Jurkat [2]; 100 nM,0.753
same,metabolic activity,Jurkat [2]; 1000 nM,0.523
same,metabolic activity,Jurkat [2]; 10000 nM,0.435
same,cytotoxicity,Jurkat [3]; 1 nM,0.843
same,cytotoxicity,Jurkat [3]; 10 nM,1.05
same,cytotoxicity,Jurkat [3]; 100 nM,0.885
same,cytotoxicity,Jurkat [3]; 1000 nM,0.619
same,cytotoxicity,Jurkat [3]; 10000 nM,0.712
CC(Oc1cc(-c2cnn(C3CCNCC3)c2)cnc1N)c1c(Cl)ccc(F)c1Cl (stereo not given) [Crizotinib],confluency,Jurkat [1]; 1 nM,1.1
same,confluency,Jurkat [1]; 10 nM,0.657
same,confluency,Jurkat [1]; 100 nM,1
same,confluency,Jurkat [1]; 1000 nM,0.919
same,confluency,Jurkat [1]; 10000 nM,0.771
same,metabolic activity,Jurkat [2]; 1 nM,0.831
same,metabolic activity,Jurkat [2]; 10 nM,0.944
same,metabolic activity,Jurkat [2]; 100 nM,0.836
same,metabolic activity,Jurkat [2]; 1000 nM,0.975
same,metabolic activity,Jurkat [2]; 10000 nM,0.882
same,cytotoxicity,Jurkat [3]; 1 nM,0.908
same,cytotoxicity,Jurkat [3]; 10 nM,0.369
same,cytotoxicity,Jurkat [3]; 100 nM,1.08
same,cytotoxicity,Jurkat [3]; 1000 nM,0.848
same,cytotoxicity,Jurkat [3]; 10000 nM,0.768
O=P1(N(CCCl)CCCl)NCCCO1 (stereo not given) [Cyclophosphamide],confluency,Jurkat [1]; 1 nM,1.01
same,confluency,Jurkat [1]; 10 nM,0.94
same,confluency,Jurkat [1]; 100 nM,0.948
same,confluency,Jurkat [1]; 1000 nM,0.977
same,confluency,Jurkat [1]; 10000 nM,0.951
same,metabolic activity,Jurkat [2]; 1 nM,1.14
same,metabolic activity,Jurkat [2]; 10 nM,1.07
same,metabolic activity,Jurkat [2]; 100 nM,1.04
same,metabolic activity,Jurkat [2]; 1000 nM,1.02
same,metabolic activity,Jurkat [2]; 10000 nM,1.03
same,cytotoxicity,Jurkat [3]; 1 nM,1.16
same,cytotoxicity,Jurkat [3]; 10 nM,0.989
same,cytotoxicity,Jurkat [3]; 100 nM,0.959
same,cytotoxicity,Jurkat [3]; 1000 nM,0.983
same,cytotoxicity,Jurkat [3]; 10000 nM,0.977
